Legend:
[1] = Cytotoxicity assay (CCK-8) on replicon cells; type: cell-based; conditions: human, HCV 1b replicon cells (Huh-7.5.1); 50% cytotoxic concentration; CCK-8, HCV 1b replicon cells, 72 h
[2] = Metal ion chelation assay using UV-Vis spectrophotometry; type: physicochemical
Excerpt: The chelation rules of the 3-hydroxyquinazoline-2,4(1H,3H)-diones with magnesium ions were explored by UV-Vis spectrophotometry, which was widely used to study the binding properties of compounds with metal ions in vitro [56, 57, 58]. For the sake of eliminating the interference of heteroaryl groups on the determination of metal ion chelation, the representative compound 21e with phenyl group substituted at the C-7 position was selected to study its chelation ability with Mg^2+ under different conditions. […] This is probably because compound 21e mainly exists in the free molecular state with the N-hydroxyl group protonated in methanol, which is difficult to chelate with Mg^2+. Intriguingly, after the introduction of 5 mm NaOAc to the methanol solution containing 21e, the effect of MgCl2 on the absorbance of the system totally changed (Figure 5B). […] Remarkably, merely 20 μM MgCl2 was able to increase the absorbance by more than 0.5. […] A reasonable logic is that the addition of NaOAc raised the pH of the methanol solution, resulting in partial ionization of compound 21e at the N-hydroxyl group. Subsequently, 21e in the ionic state formed a chelation complex with Mg^2+, which increased the absorbance of the solution.
With the aim of verifying whether 21e has the ability to chelate with Mg^2+ in the ionic state, we further investigated the influence of various concentrations of NaOAc on the differential UV-Vis spectra caused by the addition of MgCl2. […] Moreover, the magnitude of the variation in the spectrum is proportional to the concentration of NaOAc. […] The comparison between different UV-Vis spectra also verified that compound 21e could chelate with Mg^2+ in the N-hydroxyl deprotonated form rather than the free molecular state.
2 mL of methanol solution containing the components in the sample or control group (Table 4) was added to a quartz cuvette (BQ-114-2, Chongqing Xinweier Glass Co., Ltd., Chongqing, China). The absorbance at 200–400 nm was scanned by a UV-Vis spectrophotometer (Agilent Cary 60, Agilent Technologies, Santa Clara, CA, USA), and the blank methanol was used for baseline calibration. The absorbance of the control group was subtracted from that of the sample group at the corresponding wavelength to obtain the differential UV-Vis spectra, which were used to analyze the chelating property of the compound with Mg^2+.

[3] = molecular target: T1, C-terminal His-tagged NS5BΔ21 from HCV 1b subtype (Hepatitis C virus genotype 1b, UniProt Q913V3); assay: Thermal shift assay with NS5B protein; type: binding
T1 construct: C-terminal His-tagged NS5BΔ21 from HCV 1b subtype; His tag (C); made in house
Excerpt: The stability of a protein system is enhanced after binding to its specific ligand, leading to an increase in the melting temperature (Tm). Taking advantage of this feature, the thermal shift assay was extensively used to assess the binding of small molecules to the protein targets. The metal ion chelators were thought to exert an anti-HCV effect by chelating with Mg^2+ in the catalytic center of NS5B [34, 36, 38]. […] C-terminal His-tagged NS5BΔ21 from HCV 1b subtype was used as the protein in the experiment. Compared with the blank control (DMSO), the fluorescence–temperature curves of the NS5B system in the presence of 21e (Figure 3A) and 21k (Figure 3B) at 50 μM, 100 μM, and 200 μM all shifted to the right of the axis. The Tm values of 21e and 21k increased in a concentration-dependent manner, presenting higher values than that of the blank control (Tm = 63.5 °C) at all tested concentrations.
C-terminal His-tagged NS5BΔ21 from HCV 1b subtype was expressed from pET28a HCR6 plasmid in our lab and dissolved in a Tris-HCl buffer (20 mm, pH 7.2) containing 150 mm NaCl. Then, 1 μL of corresponding concentration (1 mm, 2 mm, or 4 mm) of the test compound in DMSO or 1 μL DMSO alone was added to each well of a 96-well PCR plate (Shanghai Sangon Biotech Co., Ltd., Shanghai, China). Subsequently, 19 μL of pre-prepared PBS solution containing 10 mm MgCl2, 10× SYPRO® orange protein gel stain (Sigma-Aldrich, St. Louis, MO, USA), and 5 μM NS5B protein was added to each well and mixed. The final concentration of DMSO in each well was 5%. The PCR plate was covered with a high-permeable film, incubated at room temperature for 10 min, and then placed on the Applied Biosystems^TM 7500 Real-Time PCR System (Thermo Fisher Scientific, Waltham, MA, USA). The temperature was increased to 90 °C gradually, and the change curve of fluorescence intensity versus system temperature was recorded.

T1 sequence (Q913V3 2420-2989, stated change not applied): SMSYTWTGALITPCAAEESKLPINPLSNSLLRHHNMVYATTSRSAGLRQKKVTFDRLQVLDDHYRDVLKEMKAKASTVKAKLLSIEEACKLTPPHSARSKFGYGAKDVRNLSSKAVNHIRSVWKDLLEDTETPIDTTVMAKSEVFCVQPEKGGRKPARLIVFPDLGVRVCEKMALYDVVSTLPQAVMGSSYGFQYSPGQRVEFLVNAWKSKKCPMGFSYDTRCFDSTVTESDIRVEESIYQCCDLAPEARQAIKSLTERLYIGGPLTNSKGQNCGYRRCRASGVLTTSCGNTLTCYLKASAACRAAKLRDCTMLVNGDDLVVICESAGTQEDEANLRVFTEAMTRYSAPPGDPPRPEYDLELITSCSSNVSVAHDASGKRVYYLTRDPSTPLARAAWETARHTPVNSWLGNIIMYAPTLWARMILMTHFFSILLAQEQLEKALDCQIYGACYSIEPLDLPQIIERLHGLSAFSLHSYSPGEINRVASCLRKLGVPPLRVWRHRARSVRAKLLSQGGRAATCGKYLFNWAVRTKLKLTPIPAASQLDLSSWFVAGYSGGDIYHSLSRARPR

## O=c1[nH]c2cc(-c3ccccc3)ccc2c(=O)n1O [21e, 3-Hydroxy-7-phenylquinazoline-2,4(1H,3H)-dione]
[1]
  CC50 at 72 h: 5.4 ± 0.6 µM
[2]; 50 μM compound in methanol, no NaOAc, MgCl2 up to 640 μM
  absorbance difference at 254 nm between control group and sample group: no more than 0.1
[2]; 50 μM compound, 80 μM MgCl2, 200 μM to 5 mm NaOAc in methanol
  increase of absorbance at 254 nm: 0.8–1.2
[2]; 50 μM compound, 5 mm NaOAc in methanol, 20 μM MgCl2
  increase of absorbance at 254 nm: more than 0.5
[2]; 50 μM compound, 5 mm NaOAc in methanol, 254 nm
  Mg^2+ concentration at which absorbance change reaches equilibrium: about 400 μM
[3]; compound 50 μM, Tm of compound group minus Tm of blank control, mean ± SD, three experiments
  ΔTm at 50 µM: 0.6 ± 0.15 °C
[3]; compound 100 μM, Tm of compound group minus Tm of blank control, mean ± SD, three experiments
  ΔTm at 100 µM: 0.85 ± 0.02 °C
[3]; compound 200 μM, Tm of compound group minus Tm of blank control, mean ± SD, three experiments
  ΔTm 200 μM: 1.5 ± 0.01 °C
[3]; in Figure 3, blank control Tm = 63.5 °C
  Tm of NS5B complexed with compound: 65.0 °C
[3]; read-out: ΔTm 200 μM, compound 200 μM, Tm of compound group minus Tm of blank control, mean ± SD, three experiments
  ΔTm at 200 µM: 1.6 °C

Reference: paper PMC9180926, “Discovery of Novel 3-Hydroxyquinazoline-2,4(1H,3H)-Dione Derivatives: A Series of Metal Ion Chelators with Potent Anti-HCV Activities” (International Journal of Molecular Sciences, 2022)
